Laboratory results published in EP0237411A1, “(Piperidino-3)propoxy-5p-cymene, its acetyl, acetoxy and hydroxy derivatives, salts of these products, process for the preparation of these compounds and medicines containing at least one of these products as active principle” (INSTITUT DE RECHERCHES CHIMIQUES ET BIOLOGIQUES APPLIQUEES …, priority 1986, dated 1987).
Like-named read-outs stand apart in the source and are kept apart here.

Experiments:
[1] = Acute toxicity test in the mouse (oral); conditions: in vivo, read-out: Mortalité en %
From the text: 1. Tests de toxicité aiguë chez la souris
Les résultats sont rapportés dans le tableau 1.

[2] = system: canal déférent isolé de rat; assay: α-adrenolytic action in vitro: antagonism of noradrenaline-induced contractions of isolated rat vas deferens (pA2); format: cell-based; conditions: pA2 against noradrenaline, read-out: Action α-bloquante vis-à-vis de la noradrénaline PA2 sur canal déférent isolé (converted)
From the text: 2. Détermination de l'action α-adrénolytique "in vitro" sur le canal déférent du rat.
La noradrénaline provoque des contractions du canal déférent isolé de rat. La présence dans le bain de l'organe de substances α-bloquantes antagonise ces contractions.
L'utilisation de concentrations croissantes de substances α-bloquantes permet de calculer : . la PA₂ des composés sur le canal déférent de rat.
La PA₂ étant le logarithme changé de signe de la concentration molaire des produits B 1O2O - B 1O21 - B 1O37 - -B 1O59 en présence de laquelle il faut multiplier par deux la concentration de noradrénaline pour obtenir le même effet qu'en l'absence dudit produit.

[3] = system: récepteurs α-adrénergiques; assay: Adrenolytic activity in vivo in the rat: protection against death induced by i.v. noradrenaline; conditions: 50 mg/kg P.O, 30 min before i.v. noradrenaline (0,4 mg/kg)
Procedure: 3. Détermination de l'activité adrénolytique "in vivo" chez le rat
. La noradrénaline injectée à fortes doses par voie intraveineuse provoque la mort de 1OO % des animaux dans les 15 min qui suivent son injection. La mort survient par oedème pulmonaire dû à l'hypertension artérielle induite principalement par la stimulation des récepteurs α-adrénergiques.
. L'administration préalable de substances α-adrénolytiques par voie orale permet de réduire la toxicité de la noradrénaline.
Les produits B 1O2O - B 1O21 - B 1O37 - B 1O59 sont administrés par voie orale 3O min avant l'injection intraveineuse de noradrénaline (O,4 mg/kg).

[4] = system: effet hypertenseur de la noradrénaline; assay: Urethral specificity of alpha-blocking activity in vivo in the rabbit: inhibition of noradrenaline-induced rise of arterial and urethral pressure; parameters: species or system lapin; conditions: for ED50: Oryctolagus cuniculus, intravenous administration; for R DI50 (a) DI50 (u): ratio of arterial DI50 to urethral DI50
From the text: 4. Spécificité urétrale de l'activité alpha bloquante déterminée in vivo chez le lapin :
a) - Principe de la mesure
. La noradérnaline (I.V.) provoque des augmentations dépendantes des doses de la pression artérielle et de la pression urétrale. Les substances adrénolytiques alpha antagonisent ces augmentations de pression.
. Pour les produits B 1020 - B 1037 et B 1059 administrés par voie veineuse, nous avons déterminé les doses inhibant de 50 p. cent (DI₅₀ ) l'effet de la noradrénaline au niveau artériel et urétral et évaluer le rapport R de ces DI₅₀ .

[5] = arterial pressure, read-out: Doses inhibant de 50 p.cent (DI50) l'effet hypertenseur de la noradrénaline au niveau artériel DI50 (a)
[6] = urethral pressure, read-out: Doses inhibant de 50 p.cent (DI50) l'effet hypertenseur de la noradrénaline au niveau urétral DI50 (u)

Compound: CC(=O)Oc1cc(C(C)C)c(OCCCN2CCCCC2)cc1C [B 1059, chlorhydratede l'acétoxy-2-[(pipéridino-3)propoxy]-5 p.cymène]
- mortality ([1]; 100 mg/kg): 0%
- mortality ([1]; 1000 mg/kg): 100%
- Kb [2]: 126 nM
- % de protection contre la mort [3]: 50%
- ED50 [4, 5]: > 3 mg/kg
- ED50 [4, 6]: 0.8 mg/kg
- R DI50 (a) DI50 (u) [4]: > 3,7

Compound: Cc1cc(OCCCN2CCCCC2)c(C(C)C)cc1O [B 1037, chlorhydratede l'hydroxy-2-[(pipéridino-3)propoxy]-5 p.cymène]
- mortality ([1]; 100 mg/kg): 0%
- mortality ([1]; 1000 mg/kg): 100%
- Kb [2]: 151 nM
- % de protection contre la mort [3]: 50%
- ED50 [4, 5]: > 3 mg/kg
- ED50 [4, 6]: 0.5 mg/kg
- R DI50 (a) DI50 (u) [4]: > 6

Compound: Cc1ccc(C(C)C)c(OCCCN2CCCCC2)c1 [B 1020, chlorhydrate du [(pipéridino-3)propoxy]-3 p.cymène]
- mortality ([1]; 100 mg/kg): 0%
- mortality ([1]; 1000 mg/kg): 40%
- Kb [2]: 302 nM
- % de protection contre la mort [3]: 80%
- ED50 [4, 5]: > 3 mg/kg
- ED50 [4, 6]: 1.7 mg/kg
- R DI50 (a) DI50 (u) [4]: > 1,7

Compound: CC(=O)Oc1cc(C(C)C)c(OCCN(C)C)cc1C [Thymoxamine, chlorhydrate de thymoxamine, reference compound]
- mortality ([1]; 100 mg/kg): 0%
- mortality ([1]; 1000 mg/kg): 100%
- Kb [2]: 56.2 nM
- % de protection contre la mort [3]: 80%
- ED50 [4, 5]: 2.9 mg/kg
- ED50 [4, 6]: 0.7 mg/kg
- R DI50 (a) DI50 (u) [4]: 4,1

Compound: CC(=O)c1cc(C(C)C)c(OCCCN2CCCCC2)cc1C [B 1021, chlorhydratede l'acétyl-2-[(pipéridino-3)propoxy]-5 p.cymène]
- mortality ([1]; 100 mg/kg): 20%
- mortality ([1]; 1000 mg/kg): 100%
- Kb [2]: 1740 nM
- % de protection contre la mort [3]: 40%
